The results in this text go back to patent US7365086B2, “Pramipexole acid addition salts” (Synthon IP Inc., priority 2003, dated 2008).

Where a name gives a salt, the structure may show the parent alone.

The conditions of series [1]: DVS, 25° C. The procedure:
The hygroscopicity was measured using a Dynamic Vapor Sorption apparatus or DVS (Surface Measurement Systems Ltd, UK) at 25° C. and at various controlled relative humidity conditions from 0 to 90%.
First the relative humidity was changed from 0% to 60% and back to 0% (cycle 1). Subsequently, the relative humidity was raised by steps of 10% until 90% and reduced with steps of 10% until 0% (cycle 2). Finally, the relative humidity was changed to 60% and back to 0% (cycle 3). At each step the sample was conditioned till constant weight.

Series [2] in a line: Approximate water solubility of pramipexole acid addition salts (saturation in water, shaken overnight, evaporation and weighing). Conditions: thermodynamic from solid.
Description: In general the acid addition salt was added to 2 ml of water in a test tube (1 ml of water was used for some of the very soluble salts) until a residue remained. The tube was shaken overnight at room temperature. The next morning 1 ml of the clear solution from above the solid residue was removed from the tube. This sample was evaporated and the residue was dried and weighed. In this way the approximate solubility of the salt in the water was determined.

Turning to `CCCN[C@H]1CCc2nc(N)sc2C1` [Pramipexole dihydrochloride monohydrate, pramipexole dihydrochloride monohydrate], the “water uptake relative to dry mass at 60% relative humidity” value in series [1] (60% relative humidity) was “over 1.2%”. The “total water uptake relative to the dry mass in the step from 70% and 80% relative humidity” value in series [1] (70% to 80% relative humidity) was 5%. The solubility (commonly the dissolved amount per volume that the medium holds) in series [2] is > 300 mg/mL.
